Source: publication PMC12216525, “Characterization of glutamine synthetase involved in the fecundity of Rhopalosiphum padi” (Scientific Reports, 2025)

System: RpGS1
Settings: read-out: RpGS1; 0.5-15 mM sodium glutamate; ATP, hydroxylamine, Mg2+ in solution B pH 7.4; 37 C; called purified in the discussion, methods describe protein released by ultrasonication

## N[C@@H](CCC(=O)O)C(=O)O [sodium glutamate]
  Km: 580 µM
